Test [1] has as its target T1, EGFR L858R (BaF3-L858R cells) (Homo sapiens, UniProt P00533, L858R).
T1 construct: host or cells: BaF3
The experiment in a line: Cell degradation of EGFR, HTRF assay, BaF3-L858R cells. The conditions noted are these: 16 h treatment; for DC50: EGFR degradation; for Dmax: maximum percentage of degradation. It is filed as cell-based. The protocol:
BaF3-L858R (abbv. L858R) cell were purchased from Kangyuan Bochuang Biotechnology (Beijing) Co., Ltd.
(§1) H1975-#8 and BaF3-L858R cells are treated with compounds diluted in 0.1% DMSO cell culture medium on day 2, incubate for 16 h, 37° C., 5% CO2. the final concentration of compounds in all assay is start with 10 uM, 5-fold dilution, total 8 doses were included.
(§2) After 16 h treatment, for H1975-#8 cells, add 100 ul HTRF 1× lysis buffer to each well; for BaF3-L858R cells, add 20 μl 4× lysis buffer to each well; seal the plate and incubate 1 hour at room temperature on a plate shaker; Once the cells are lysed, 16 μL of cell lysate are transferred to a PE 384-well HTRF detection plate; 4 μL of pre-mixed HTRF antibodies are added to each well; Cover the plate with a plate sealer, spin 1000 rpm for 1 min, Incubate overnight at room temperature; Read on BMG PheraStar with HTRF protocol (337 nm-665 nm-620 nm).
(§3) High control=Cell group with added DMSO and without compound, indicating microplate readings without EGFR degradation;
(§4) Dmax is the maximum percentage of inhibition (degradation).
(§5) The IC50 (DC50) value of a compound can be obtained by fitting the following equation
(§6) Y=Bottom+(TOP−Bottom)/(1+((IC50/X)^hillslope))
(§7) Wherein, X and Y are known values, and IC50, Hillslope, Top and Bottom are the parameters obtained by fitting with software. […] The experimental data were fitted by calculating and analyzing with Dotmatics data analysis software.
A general note: In TR-FRET formats the signal depends on donor and acceptor labels being close together.

The target in test [2] is T2, EGFR-L858R/C797S (H1975-clone #8 cells) (Homo sapiens, UniProt P00533, C797S/L858R).
T2 construct: expressed in transfected cells; host or cells: H1975 (endogenous EGFR knocked out, clone #8)
Nature of the test: Cell degradation of EGFR, HTRF assay, H1975-clone#8 (L858R/C797S) cells. It is filed as cell-based. The following applies: 16 h treatment; for DC50: EGFR degradation; for Dmax: maximum percentage of degradation. The protocol: The EGFR over-expressed cells then underwent knockout, in which the EGFR targeting sgRNA was designed to only target the endogenous EGFR copies and preserve the exogenous EGFR copies. Followed by the knockout, the edited H1975 cells were seeded in 96 well plates at the concentration of […], cultured for about 2 weeks to allow single clones formation. The formed clones were screened by DNA sequencing and whole exon sequencing analysis for the desired edition.
as §1, §2, §3, §4, §5, §6, §7

T2 sequence (P00533 25-1210 C797S/L858R): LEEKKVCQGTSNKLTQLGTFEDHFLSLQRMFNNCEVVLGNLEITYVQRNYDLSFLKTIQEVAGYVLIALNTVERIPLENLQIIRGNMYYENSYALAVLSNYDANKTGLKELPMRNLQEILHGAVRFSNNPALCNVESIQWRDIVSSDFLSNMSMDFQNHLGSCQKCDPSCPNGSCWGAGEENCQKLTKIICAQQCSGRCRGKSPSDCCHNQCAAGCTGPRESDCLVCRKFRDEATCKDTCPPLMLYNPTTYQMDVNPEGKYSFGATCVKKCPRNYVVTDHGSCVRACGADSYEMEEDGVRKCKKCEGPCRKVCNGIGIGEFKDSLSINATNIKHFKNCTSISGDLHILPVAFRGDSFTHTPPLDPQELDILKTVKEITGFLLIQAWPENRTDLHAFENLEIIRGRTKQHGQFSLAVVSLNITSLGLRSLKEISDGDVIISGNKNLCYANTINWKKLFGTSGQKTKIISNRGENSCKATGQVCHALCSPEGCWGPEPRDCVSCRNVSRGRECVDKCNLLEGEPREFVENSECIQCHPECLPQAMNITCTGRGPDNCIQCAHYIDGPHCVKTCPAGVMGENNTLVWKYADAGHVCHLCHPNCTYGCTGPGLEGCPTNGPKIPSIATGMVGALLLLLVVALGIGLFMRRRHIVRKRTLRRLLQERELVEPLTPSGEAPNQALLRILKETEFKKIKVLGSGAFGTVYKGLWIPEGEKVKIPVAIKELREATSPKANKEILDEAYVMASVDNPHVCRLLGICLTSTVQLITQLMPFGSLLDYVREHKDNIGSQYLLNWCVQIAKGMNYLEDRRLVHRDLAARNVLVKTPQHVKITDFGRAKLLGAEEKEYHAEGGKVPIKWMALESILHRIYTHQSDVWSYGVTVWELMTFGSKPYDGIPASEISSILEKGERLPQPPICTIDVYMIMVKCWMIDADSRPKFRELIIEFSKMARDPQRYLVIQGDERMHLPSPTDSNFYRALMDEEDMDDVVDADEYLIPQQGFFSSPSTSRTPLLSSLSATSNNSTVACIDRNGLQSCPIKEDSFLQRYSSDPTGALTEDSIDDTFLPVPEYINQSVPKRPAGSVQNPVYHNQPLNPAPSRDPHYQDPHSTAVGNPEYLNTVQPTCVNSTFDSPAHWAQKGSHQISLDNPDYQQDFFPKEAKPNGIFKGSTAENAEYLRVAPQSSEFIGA
T1 sequence (P00533 25-1210 L858R): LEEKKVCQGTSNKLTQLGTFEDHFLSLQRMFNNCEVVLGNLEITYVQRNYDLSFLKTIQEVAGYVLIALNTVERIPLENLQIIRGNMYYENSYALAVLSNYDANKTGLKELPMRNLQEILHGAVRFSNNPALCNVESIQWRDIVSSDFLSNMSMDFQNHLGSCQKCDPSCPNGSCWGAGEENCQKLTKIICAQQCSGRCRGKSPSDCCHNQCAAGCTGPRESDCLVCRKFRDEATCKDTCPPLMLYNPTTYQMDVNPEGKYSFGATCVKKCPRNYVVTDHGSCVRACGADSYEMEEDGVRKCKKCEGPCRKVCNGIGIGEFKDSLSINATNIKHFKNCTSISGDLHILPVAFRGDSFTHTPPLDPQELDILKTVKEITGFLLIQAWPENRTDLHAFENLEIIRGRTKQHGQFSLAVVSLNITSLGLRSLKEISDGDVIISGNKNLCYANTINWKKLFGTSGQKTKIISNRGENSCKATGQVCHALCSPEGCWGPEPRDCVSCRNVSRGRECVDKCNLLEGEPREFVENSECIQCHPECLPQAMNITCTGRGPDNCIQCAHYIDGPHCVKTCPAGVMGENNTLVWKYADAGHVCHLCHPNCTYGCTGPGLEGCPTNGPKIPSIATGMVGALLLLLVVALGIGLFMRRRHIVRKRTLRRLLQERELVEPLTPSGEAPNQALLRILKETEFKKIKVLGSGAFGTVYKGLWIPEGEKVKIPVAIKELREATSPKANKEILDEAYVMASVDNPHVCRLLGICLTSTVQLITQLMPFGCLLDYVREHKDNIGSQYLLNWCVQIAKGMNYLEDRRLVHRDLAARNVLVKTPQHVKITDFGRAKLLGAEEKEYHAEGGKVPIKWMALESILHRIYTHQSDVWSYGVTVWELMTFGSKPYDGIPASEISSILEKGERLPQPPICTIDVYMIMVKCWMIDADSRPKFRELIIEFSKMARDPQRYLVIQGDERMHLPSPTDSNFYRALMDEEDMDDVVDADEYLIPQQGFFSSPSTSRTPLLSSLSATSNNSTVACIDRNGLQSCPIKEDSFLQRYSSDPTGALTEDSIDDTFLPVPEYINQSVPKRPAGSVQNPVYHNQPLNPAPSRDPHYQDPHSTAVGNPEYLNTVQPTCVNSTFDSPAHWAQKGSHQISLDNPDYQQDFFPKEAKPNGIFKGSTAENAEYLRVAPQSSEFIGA

As to `COC[C@@H]1CN(c2ccc3c(c2)N2C[C@@H]4CC[C@H](COc5c(c(C)nn5C)-c5cc(cc(C)n5)C(=O)/N=C/2N3)C4)CCN1C1CCN(c2c(C)cc(C3CCC(=O)NC3=O)nc2C)CC1` (stereo partly drawn) [Example 147, 3-(5-(4-((S)-2-(methoxymethyl)-4-((7^1R,7^3S,E)-1^1,1^3,2^6-trimethyl-3-oxo-5^2,5^3-dihydro-1^1H,5^1H-9-oxa-4-aza-5(2,1)-benzo[d]imidazola-2(2,4)-pyridina-1(4,5)-pyrazola-7(1,3)-cyclopentanacyclononaphane-5^6-yl)piperazin-1-yl)piperidin-1-yl)-4,6-dimethylpyridin-2-yl)piperidine-2,6-dione], the values for the half-maximal degradation concentration (DC50) in test [1] and in test [2] were 1.04 nM and 2.02 nM, respectively. Also, the values for the Dmax in test [1] and in test [2] were 87.6% and 63.2%, respectively.

For `Cc1cc2cc(n1)-c1cnn(C)c1OC[C@H]1CC[C@H](C1)CN1/C(=N/C2=O)Nc2ccc(N3CCN(CC4CCN(c5ccc(C6CCC(=O)NC6=O)nc5C)CC4)CC3)cc21` (stereo partly shown) [Example 23, 3-(5-(4-((4-((7^1R,7^3S,E)-1^1,2^6-dimethyl-3-oxo-5^2,5^3-dihydro-1^1H,5^1H-9-oxa-4-aza-5(2,1)-benzo[d]imidazola-2(2,4)-pyridina-1(4,5)-pyrazola-7(1,3)-cyclopentanacyclononaphane-5^6-yl)piperazin-1-yl)methyl)piperidin-1-yl)-6-methylpyridin-2-yl)piperidine-2,6-dione], the DC50 in test [1] was found to be 12.8 nM; in test [2], 0.608 nM. For the same molecule, the Dmax turned out to be 86% in test [1] and 55% in test [2].

In test [1], `Cc1cc2cc(n1)-c1cnn(C)c1OC[C@H]1CC[C@H](C1)CN1/C(=N/C2=O)Nc2ccc(N3CCN([C@H]4CCN(c5cc(F)c(C6CCC(=O)NC6=O)nc5C)C[C@H]4F)CC3)cc21` (stereo partly drawn) [Example 27, 3-(5-((3R,4S)-4-(4-((7^1R,7^3S,E)-1^1,2^6-dimethyl-3-oxo-5^2,5^3-dihydro-1^1H,5^1H-9-oxa-4-aza-5(2,1)-benzo[d]imidazola-2(2,4)-pyridina-1(4,5)-pyrazola-7(1,3)-cyclopentanacyclononaphane-5^6-yl)piperazin-1-yl)-3-fluoropiperidin-1-yl)-3-fluoro-6-methylpyridin-2-yl)piperidine-2,6-dione] had a half-maximal degradation concentration (DC50) of 1.75 nM and a Dmax of 91.1%. In test [2], this molecule came in with a DC50 of 3.19 nM and a Dmax of 90.2%.

Regarding `Cc1cc2cc(n1)-c1cnn(C)c1OC[C@H]1CC[C@H](C1)CN1/C(=N/C2=O)Nc2ccc(N3CCN([C@@H]4CCN(c5cccc6c5C(C)(C)C(=O)N6C5CCC(=O)NC5=O)C[C@@H]4F)CC3)cc21` (stereo partly drawn) [Example 11, 3-(4-((3S,4R)-4-(4-((7^1R,7^3S,E)-1^1,2^6-dimethyl-3-oxo-5^2,5^3-dihydro-1^1H,5^1H-9-oxa-4-aza-5(2,1)-benzo[d]imidazola-2(2,4)-pyridina-1(4,5)-pyrazola-7(1,3)-cyclopentanacyclononaphane-5^6-yl)piperazin-1-yl)-3-fluoropiperidin-1-yl)-3,3-dimethyl-2-oxoindolin-1-yl)piperidine-2,6-dione], the 50% degradation concentration (DC50) in test [1] came out at 0.834 nM; in test [2], 3.75 nM. The values for the Dmax in test [1] and in test [2] were 84.6% and 61.5%, respectively.

As for `CCc1nc(C2CCC(=O)NC2=O)ccc1N1CCC(N2CCN(c3ccc4c(c3)N3C[C@@H]5CC[C@H](COc6c(cnn6C)-c6cc(cc(C)n6)C(=O)/N=C/3N4)C5)CC2)CC1` (stereo partly shown) [Example 4, 3-(5-(4-(4-((7^1R,7^3S,E)-1^1,2^6-dimethyl-3-oxo-5^2,5^3-dihydro-1^1H,5^1H-9-oxa-4-aza-5(2,1)-benzo[d]imidazola-2(2,4)-pyridina-1(4,5)-pyrazola-7(1,3)-cyclopentanacyclononaphane-5^6-yl)piperazin-1-yl)piperidin-1-yl)-6-ethylpyridin-2-yl)piperidine-2,6-dione], the 50% degradation concentration (DC50) is 1.23 nM in test [1] and 2.34 nM in test [2]. For the same molecule, the greatest degradation seen (Dmax) was determined as 87.6% in test [1] and 75.4% in test [2].

In test [1], `Cc1cc2cc(n1)-c1cnn(C)c1OC[C@H]1CC[C@H](C1)CN1/C(=N/C2=O)Nc2ccc(N3CCN(C4CCN(c5cccc6c5C(C)(C)C(=O)N6C5CCC(=O)NC5=O)CC4)CC3)cc21` (stereo partly shown) [Example 5, 3-(4-(4-(4-((7^1R,7^3S,E)-1^1,2^6-dimethyl-3-oxo-5^2,5^3-dihydro-1^1H,5^1H-9-oxa-4-aza-5(2,1)-benzo[d]imidazola-2(2,4)-pyridina-1(4,5)-pyrazola-7(1,3)-cyclopentanacyclononaphane-5^6-yl)piperazin-1-yl)piperidin-1-yl)-3,3-dimethyl-2-oxoindolin-1-yl)piperidine-2,6-dione] gave a DC50 of 1.01 nM and a Dmax of 84.4%. In test [2], the DC50 is 0.856 nM and the greatest degradation seen (Dmax) was 75.7%.

For the molecule `Cc1cc2cc(n1)-c1cnn(C)c1OC[C@H]1CC[C@H](C1)CN1/C(=N/C2=O)Nc2ccc(N3CCN(CC4CN(c5c(C)cc(C6CCC(=O)NC6=O)nc5C)C4)CC3)cc21` (stereo partly shown) [Example 8, 3-(5-(3-((4-((7^1R,7^3S,E)-1^1,2^6-dimethyl-3-oxo-5^2,5^3-dihydro-1^1H,5^1H-9-oxa-4-aza-5(2,1)-benzo[d]imidazola-2(2,4)-pyridina-1(4,5)-pyrazola-7(1,3)-cyclopentanacyclononaphane-5^6-yl)piperazin-1-yl)methyl)azetidin-1-yl)-4,6-dimethylpyridin-2-yl)piperidine-2,6-dione], the values for the DC50 in test [1] and in test [2] were 3.2 nM and 3.18 nM, respectively. Further, the greatest degradation seen (Dmax) was determined as 64% in test [1] and 74.2% in test [2].

Take `Cc1cc2cc(n1)-c1cnn(C)c1OC[C@H]1CC[C@H](C1)CN1/C(=N/C2=O)Nc2ccc(N3CCN(C4CCN(c5cc(F)c([C@H]6CCC(=O)NC6=O)c(F)c5)CC4)CC3)cc21` [Example 1, (R)-3-(4-(4-(4-((7^1R,7^3S,E)-1^1,2^6-dimethyl-3-oxo-5^2,5^3-dihydro-1^1H,5^1H-9-oxa-4-aza-5(2,1)-benzo[d]imidazola-2(2,4)-pyridina-1(4,5)-pyrazola-7(1,3)-cyclopentanacyclononaphane-5^6-yl)piperazin-1-yl)piperidin-1-yl)-2,6-difluorophenyl)piperidine-2,6-dione]: in test [1], the DC50 was 3.25 nM and the Dmax was found to be 89.7%. Also, in test [2], the DC50 turned out to be 1.41 nM and the maximal degradation (Dmax) came out at 79.2%.

For `Cc1cc2cc(n1)-c1cnn(CCO)c1OC[C@H]1CCC(C1)CN1/C(=N/C2=O)Nc2ccc(N3CCC(N4CCC(Nc5cc(F)c([C@H]6CCC(=O)NC6=O)c(F)c5)CC4)CC3)cc21` [Example 129, (R)-3-(2,6-difluoro-4-((1′-((7^1R,7^3S,E)-1^1-(2-hydroxyethyl)-2^6-methyl-3-oxo-5^2,5^3-dihydro-1^1H,5^1H-9-oxa-4-aza-5(2,1)-benzo[d]imidazola-2(2,4)-pyridina-1(4,5)-pyrazola-7(1,3)-cyclopentanacyclononaphane-5^6-yl)-[1,4′-bipiperidin]-4-yl)amino)phenyl)piperidine-2,6-dione], in test [1], half-maximal degradation (DC50) was put at 16.2 nM and the Dmax is 71.9%. In test [2], this molecule had a half-maximal degradation concentration (DC50) of 1.45 nM and a Dmax of 69.3%.

In the case of `Cc1cc2cc(n1)-c1cnn(C)c1OC[C@H]1CC[C@H](C1)CN1/C(=N/C2=O)Nc2ccc(N3CCN([C@H]4CCN(c5ccc(C6CCC(=O)NC6=O)nc5C)C[C@H]4F)CC3)cc21` (stereo partly drawn) [Example 15, 3-(5-((3R,4S)-4-(4-((7^1R,7^3S,E)-1^1,2^6-dimethyl-3-oxo-5^2,5^3-dihydro-1^1H,5^1H-9-oxa-4-aza-5(2,1)-benzo[d]imidazola-2(2,4)-pyridina-1(4,5)-pyrazola-7(1,3)-cyclopentanacyclononaphane-5^6-yl)piperazin-1-yl)-3-fluoropiperidin-1-yl)-6-methylpyridin-2-yl)piperidine-2,6-dione], in test [1], it took 7.6 nM to reach half-maximal degradation (DC50) and the Dmax amounted to 94.2%. In test [2], this molecule came in with a DC50 of 11.1 nM and a Dmax of 85.2%.

In general, DC50 refers to the concentration at which degradation of the target reaches its halfway point. Lower therefore signals a more potent degrader. As a reminder, the Dmax is the greatest extent of degradation seen. A lower Dmax goes with shallow degradation.

For the origin of these results see US20240425523A1, “Compounds for the Degradation of EGFR Kinase” (Beigene Switzerland GMBH, priority 2023, published 2024).
